Where a name gives a salt, the structure may show the parent alone. Read-outs that look alike come from different tables or passages of the source.
What was measured:
Test in all cases: AK assay 384-well format, Prestwick library screening
E. cloacae = format: cell-based, Enterobacter cloacae; conditions: 50 μM final drug concentration; for fold induction at 50 µM: Enterobacter cloacae, 3 h
[1] = tested on: S. aureus strain USA300-0114; format: cell-based, Staphylococcus aureus; conditions: 50 μM final drug concentration; for fold induction at 50 µM: Staphylococcus aureus, USA300, 3 h
E. faecium = format: cell-based, Enterococcus faecium; conditions: 50 μM final drug concentration; for fold induction at 50 µM: Enterococcus faecium, 3 h
[2] = tested on: A. baumannii strain 98-37-09; format: cell-based, Acinetobacter baumannii; conditions: 50 μM final drug concentration; for fold induction at 50 µM: Acinetobacter baumannii, 983709, 3 h
P. aeruginosa = format: cell-based, Pseudomonas aeruginosa; conditions: 50 μM final drug concentration; for fold induction at 50 µM: Pseudomonas aeruginosa, 3 h
K. pneumoniae = format: cell-based, Klebsiella pneumoniae; conditions: 50 μM final drug concentration; for fold induction at 50 µM: Klebsiella pneumoniae, 3 h
E. coli = format: cell-based, Escherichia coli; conditions: 50 μM final drug concentration; for fold induction at 50 µM: Escherichia coli, 3 h
[3] = planktonic E. cloacae, cutoff for positive-scoring molecules 3-fold increase, read-out: AK-based Prestwick Library Screening Results, E. cloacae (increase in extracellular AK activity)
[4] = planktonic S. aureus, cutoff for positive-scoring molecules 3-fold increase, read-out: AK-based Prestwick Library Screening Results, S. aureus (increase in extracellular AK activity)
[5] = planktonic E. faecium, cutoff for positive-scoring molecules 3-fold increase, read-out: AK-based Prestwick Library Screening Results, E. faecium (increase in extracellular AK activity)
[6] = planktonic A. baumannii, cutoff for positive-scoring molecules 3-fold increase, read-out: AK-based Prestwick Library Screening Results, A. baumannii (increase in extracellular AK activity)
[7] = planktonic P. aeruginosa, cutoff for positive-scoring molecules 3-fold increase, read-out: AK-based Prestwick Library Screening Results, P. aeruginosa (increase in extracellular AK activity)
[8] = planktonic K. pneumoniae, cutoff for positive-scoring molecules 3-fold increase, read-out: AK-based Prestwick Library Screening Results, K. pneumoniae (increase in extracellular AK activity)
[9] = planktonic E. coli, cutoff for positive-scoring molecules 3-fold increase, read-out: AK-based Prestwick Library Screening Results, E. coli (increase in extracellular AK activity)
[10] = cutoff for positive-scoring molecules 3-fold increase, read-out: AK-based Prestwick Library Screening Results, E. cloacae (fold increase in extracellular AK activity)
[11] = cutoff for positive-scoring molecules 3-fold increase, read-out: AK-based Prestwick Library Screening Results, S. aureus (fold increase in extracellular AK activity)
[12] = cutoff for positive-scoring molecules 3-fold increase, read-out: AK-based Prestwick Library Screening Results, E. faecium (fold increase in extracellular AK activity)
[13] = cutoff for positive-scoring molecules 3-fold increase, read-out: AK-based Prestwick Library Screening Results, A. baumannii (fold increase in extracellular AK activity)
[14] = cutoff for positive-scoring molecules 3-fold increase, read-out: AK-based Prestwick Library Screening Results, P. aeruginosa (fold increase in extracellular AK activity)
[15] = cutoff for positive-scoring molecules 3-fold increase, read-out: AK-based Prestwick Library Screening Results, K. pneumoniae (fold increase in extracellular AK activity)
[16] = cutoff for positive-scoring molecules 3-fold increase, read-out: AK-based Prestwick Library Screening Results, E. coli (fold increase in extracellular AK activity)

Compound: CC(C)(O/N=C(\C(=O)N[C@@H]1C(=O)N2C(C(=O)[O-])=C(C[n+]3ccccc3)CS[C@H]12)c1csc(N)n1)C(=O)O [Ceftazidime pentahydrate]
- fold induction at 50 µM (E. cloacae; [3]): 12.9
- fold induction at 50 µM [1, 4]: 0.4
- fold induction at 50 µM (E. faecium; [5]): 0.9
- fold induction at 50 µM [2, 6]: 0.5
- fold induction at 50 µM (P. aeruginosa; [7]): 7.8
- fold induction at 50 µM (K. pneumoniae; [8]): 3.2
- fold induction at 50 µM (E. coli; [9]): 11.5

Compound: CO/N=C(\C(=O)N[C@@H]1C(=O)N2C(C(=O)O)=C(COC(N)=O)CS[C@H]12)c1ccco1 [Cefuroxime sodium salt]
- fold induction at 50 µM (E. cloacae; [10]): 1.6
- fold induction at 50 µM [1, 11]: 3.4
- fold induction at 50 µM (E. faecium; [12]): 1
- fold induction at 50 µM [2, 13]: 1.4
- fold induction at 50 µM (P. aeruginosa; [14]): 1.6
- fold induction at 50 µM (K. pneumoniae; [15]): 2.4
- fold induction at 50 µM (E. coli; [16]): 12.1

Compound: CC1=C(C(=O)O)N2C(=O)[C@@H](NC(=O)[C@H](N)c3ccccc3)[C@H]2SC1 [Cephalexin monohydrate]
- fold induction at 50 µM (E. cloacae; [3]): 1.4
- fold induction at 50 µM [1, 4]: 0.7
- fold induction at 50 µM (E. faecium; [5]): 0.9
- fold induction at 50 µM [2, 6]: 0.9
- fold induction at 50 µM (P. aeruginosa; [7]): 0.8
- fold induction at 50 µM (K. pneumoniae; [8]): 0.7
- fold induction at 50 µM (E. coli; [9]): 0.8

Compound: CC(=O)OCC1=C(C(=O)O)N2C(=O)[C@@H](N)[C@H]2SC1 [Cephalosporanic acid, 7-amino]
- AK-based Prestwick Library Screening Results, E. cloacae (increase in extracellular AK activity) (E. cloacae; planktonic E. cloacae, […]): 0.8
- AK-based Prestwick Library Screening Results, S. aureus (increase in extracellular AK activity) ([1]; planktonic S. aureus, […]): 0.6
- AK-based Prestwick Library Screening Results, E. faecium (increase in extracellular AK activity) (E. faecium; planktonic E. faecium, […]): 0.9
- AK-based Prestwick Library Screening Results, A. baumannii (increase in extracellular AK activity) ([2]; planktonic A. baumannii, […]): 0.8
- AK-based Prestwick Library Screening Results, P. aeruginosa (increase in extracellular AK activity) (P. aeruginosa; planktonic P. aeruginosa, […]): 0.8
- AK-based Prestwick Library Screening Results, K. pneumoniae (increase in extracellular AK activity) (K. pneumoniae; planktonic K. pneumoniae, […]): 0.7
- AK-based Prestwick Library Screening Results, E. coli (increase in extracellular AK activity) (E. coli; planktonic E. coli, […]): 0.9

Compound: CC(=O)OCC1=C(C(=O)O)N2C(=O)[C@@H](NC(=O)Cc3cccs3)[C@H]2SC1 [Cephalothin sodium salt]
- fold induction at 50 µM (E. cloacae; [10]): 2
- fold induction at 50 µM [1, 11]: 5.3
- fold induction at 50 µM (E. faecium; [12]): 1
- fold induction at 50 µM [2, 13]: 1.1
- fold induction at 50 µM (P. aeruginosa; [14]): 1.1
- fold induction at 50 µM (K. pneumoniae; [15]): 3.2
- fold induction at 50 µM (E. coli; [16]): 11.8

Compound: O=C(O)COCCN1CCN(C(c2ccccc2)c2ccc(Cl)cc2)CC1 (stereo not shown) [Cetirizine dihydrochloride]
- fold induction at 50 µM (E. cloacae; [3]): 0.9
- fold induction at 50 µM [1, 4]: 0.7
- fold induction at 50 µM (E. faecium; [5]): 0.9
- fold induction at 50 µM [2, 6]: 1.1
- fold induction at 50 µM (P. aeruginosa; [7]): 0.9
- fold induction at 50 µM (K. pneumoniae; [8]): 0.7
- fold induction at 50 µM (E. coli; [9]): 0.9

Compound: C[C@H](CCC(=O)O)[C@H]1CC[C@H]2[C@@H]3[C@H](O)C[C@@H]4C[C@H](O)CC[C@]4(C)[C@H]3CC[C@]12C [Chenodiol]
- fold induction at 50 µM (E. cloacae; planktonic E. cloacae, 384-well, cutoff for positive-scoring molecules 3-fold increase, read-out: AK-based Prestwick Library Screening Results: E. cloacae (increase in extracellular AK activity)): 1.5
- fold induction at 50 µM ([1]; planktonic S. aureus, 384-well, cutoff for positive-scoring molecules 3-fold increase, read-out: AK-based Prestwick Library Screening Results: S. aureus (increase in extracellular AK activity)): 1.7
- fold induction at 50 µM (E. faecium; planktonic E. faecium, 384-well, cutoff for positive-scoring molecules 3-fold increase, read-out: AK-based Prestwick Library Screening Results: E. faecium (increase in extracellular AK activity)): 1
- fold induction at 50 µM ([2]; planktonic A. baumannii, 384-well, cutoff for positive-scoring molecules 3-fold increase, read-out: AK-based Prestwick Library Screening Results: A. baumannii (increase in extracellular AK activity)): 1
- fold induction at 50 µM (P. aeruginosa; planktonic P. aeruginosa, 384-well, cutoff for positive-scoring molecules 3-fold increase, read-out: AK-based Prestwick Library Screening Results: P. aeruginosa (increase in extracellular AK activity)): 1.2
- fold induction at 50 µM (K. pneumoniae; planktonic K. pneumoniae, 384-well, cutoff for positive-scoring molecules 3-fold increase, read-out: AK-based Prestwick Library Screening Results: K. pneumoniae (increase in extracellular AK activity)): 0.8
- fold induction at 50 µM (E. coli; planktonic E. coli, 384-well, cutoff for positive-scoring molecules 3-fold increase, read-out: AK-based Prestwick Library Screening Results: E. coli (increase in extracellular AK activity)): 1.2

Compound: COc1cc(-c2ccc(N=Nc3ccc4c(S(=O)(=O)[O-])cc(S(=O)(=O)[O-])c(N)c4c3O)c(OC)c2)ccc1N=Nc1ccc2c(S(=O)(=O)[O-])cc(S(=O)(=O)[O-])c(N)c2c1O.[Na+].[Na+].[Na+].[Na+] [Chicago sky blue 6B]
- AK-based Prestwick Library Screening Results, E. cloacae (increase in extracellular AK activity) (E. cloacae; planktonic E. cloacae, cutoff for positive-scoring molecules 3-fold increase): 0.9
- AK-based Prestwick Library Screening Results, S. aureus (increase in extracellular AK activity) ([1]; planktonic S. aureus, cutoff for positive-scoring molecules 3-fold increase): 0.0
- AK-based Prestwick Library Screening Results, E. faecium (increase in extracellular AK activity) (E. faecium; planktonic E. faecium, cutoff for positive-scoring molecules 3-fold increase): 0.5
- AK-based Prestwick Library Screening Results, A. baumannii (increase in extracellular AK activity) ([2]; planktonic A. baumannii, cutoff for positive-scoring molecules 3-fold increase): 0.4
- AK-based Prestwick Library Screening Results, P. aeruginosa (increase in extracellular AK activity) (P. aeruginosa; planktonic P. aeruginosa, cutoff for positive-scoring molecules 3-fold increase): 0.4
- AK-based Prestwick Library Screening Results, K. pneumoniae (increase in extracellular AK activity) (K. pneumoniae; planktonic K. pneumoniae, cutoff for positive-scoring molecules 3-fold increase): 0.3
- AK-based Prestwick Library Screening Results, E. coli (increase in extracellular AK activity) (E. coli; planktonic E. coli, cutoff for positive-scoring molecules 3-fold increase): 0.5

Compound: O=C(O)CCCc1ccc(N(CCCl)CCCl)cc1 [Chlorambucil]
- fold induction at 50 µM (E. cloacae; planktonic E. cloacae, […], read-out: AK-based Prestwick library screening result, E. cloacae (fold increase in extracellular AK activity)): 1.2
- fold induction at 50 µM ([1]; planktonic S. aureus, […], read-out: AK-based Prestwick library screening result, S. aureus (fold increase in extracellular AK activity)): 0.8
- fold induction at 50 µM (E. faecium; planktonic E. faecium, […], read-out: AK-based Prestwick library screening result, E. faecium (fold increase in extracellular AK activity)): 0.9
- fold induction at 50 µM ([2]; planktonic A. baumannii, […], read-out: AK-based Prestwick library screening result, A. baumannii (fold increase in extracellular AK activity)): 0.9
- fold induction at 50 µM (P. aeruginosa; planktonic P. aeruginosa, […], read-out: AK-based Prestwick library screening result, P. aeruginosa (fold increase in extracellular AK activity)): 0.8
- fold induction at 50 µM (K. pneumoniae; planktonic K. pneumoniae, […], read-out: AK-based Prestwick library screening result, K. pneumoniae (fold increase in extracellular AK activity)): 0.7
- fold induction at 50 µM (E. coli; planktonic E. coli, […], read-out: AK-based Prestwick library screening result, E. coli (fold increase in extracellular AK activity)): 0.9

Compound: O=C(N[C@H](CO)[C@H](O)c1ccc([N+](=O)[O-])cc1)C(Cl)Cl [Chloramphenicol]
- fold induction at 50 µM (E. cloacae; 384-well format, cutoff for positive-scoring molecules 3-fold increase, read-out: AK-based Prestwick Library Screening Results, E. cloacae (increase in extracellular AK activity)): 1.5
- fold induction at 50 µM ([1]; 384-well format, cutoff for positive-scoring molecules 3-fold increase, read-out: AK-based Prestwick Library Screening Results, S. aureus (increase in extracellular AK activity)): 9.7
- fold induction at 50 µM (E. faecium; 384-well format, cutoff for positive-scoring molecules 3-fold increase, read-out: AK-based Prestwick Library Screening Results, E. faecium (increase in extracellular AK activity)): 0.8
- fold induction at 50 µM ([2]; 384-well format, cutoff for positive-scoring molecules 3-fold increase, read-out: AK-based Prestwick Library Screening Results, A. baumannii (increase in extracellular AK activity)): 1
- fold induction at 50 µM (P. aeruginosa; 384-well format, cutoff for positive-scoring molecules 3-fold increase, read-out: AK-based Prestwick Library Screening Results, P. aeruginosa (increase in extracellular AK activity)): 0.8
- fold induction at 50 µM (K. pneumoniae; 384-well format, cutoff for positive-scoring molecules 3-fold increase, read-out: AK-based Prestwick Library Screening Results, K. pneumoniae (increase in extracellular AK activity)): 0.2
- fold induction at 50 µM (E. coli; 384-well format, cutoff for positive-scoring molecules 3-fold increase, read-out: AK-based Prestwick Library Screening Results, E. coli (increase in extracellular AK activity)): 0.7

— patent US10004701B2, “Methods and compositions for treating infection” (UNIVERSITY OF ROCHESTER, priority 2012, dated 2018)
